From BindingDB's records for doi:10.1021/acs.jmedchem.8b00159 (China Pharmaceutical University, 2018)

How the values were obtained:
[1] = biological target: T1, Isocitrate dehydrogenase [NADP] cytoplasmic (Homo sapiens, UniProt O75874); experiment: Inhibition of IDH1 R132C mutant (unknown origin) assessed as reduction in NADPH consumption using alpha-KG as substrate incubated for 60 mins by diaphorase and resazurin dye based assay
Target sequence in this assay (O75874 2-414 R132C limits assumed): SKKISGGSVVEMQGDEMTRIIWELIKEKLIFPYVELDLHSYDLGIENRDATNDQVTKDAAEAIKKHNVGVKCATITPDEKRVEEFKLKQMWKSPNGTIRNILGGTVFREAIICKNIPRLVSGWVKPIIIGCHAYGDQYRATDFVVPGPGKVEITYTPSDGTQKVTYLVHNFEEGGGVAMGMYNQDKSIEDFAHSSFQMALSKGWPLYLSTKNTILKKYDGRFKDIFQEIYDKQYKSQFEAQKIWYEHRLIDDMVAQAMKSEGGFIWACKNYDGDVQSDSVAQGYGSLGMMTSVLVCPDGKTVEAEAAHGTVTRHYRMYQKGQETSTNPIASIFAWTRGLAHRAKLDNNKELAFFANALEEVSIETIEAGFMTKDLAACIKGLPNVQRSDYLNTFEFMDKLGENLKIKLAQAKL

[2] = biological target: T2, Isocitrate dehydrogenase [NADP], mitochondrial (Homo sapiens, UniProt P48735); experiment: Inhibition of IDH2 R140Q mutant (unknown origin) assessed as reduction in NADPH consumption using alpha-KG as substrate incubated for 60 mins by diaphorase and resazurin dye based assay
T2 sequence (P48735 whole entry): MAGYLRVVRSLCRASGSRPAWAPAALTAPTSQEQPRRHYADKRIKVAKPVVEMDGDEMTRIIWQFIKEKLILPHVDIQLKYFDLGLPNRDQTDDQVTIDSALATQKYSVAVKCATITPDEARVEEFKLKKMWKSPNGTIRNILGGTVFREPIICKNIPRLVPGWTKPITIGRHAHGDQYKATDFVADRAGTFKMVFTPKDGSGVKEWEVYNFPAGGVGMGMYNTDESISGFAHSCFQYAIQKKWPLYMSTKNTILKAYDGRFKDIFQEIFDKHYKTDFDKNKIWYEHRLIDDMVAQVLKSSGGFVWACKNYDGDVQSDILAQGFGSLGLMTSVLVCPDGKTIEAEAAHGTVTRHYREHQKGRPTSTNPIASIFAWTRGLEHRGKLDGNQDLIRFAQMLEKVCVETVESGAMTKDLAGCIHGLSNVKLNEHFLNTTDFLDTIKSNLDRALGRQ

[3] = biological target: T1, Isocitrate dehydrogenase [NADP] cytoplasmic; experiment: Inhibition of IDH1 R132H mutant (unknown origin) assessed as reduction in NADPH consumption using alpha-KG as substrate incubated for 60 mins by diaphorase and resazurin dye based assay
Target sequence in this assay (O75874 2-414 R132H limits assumed): as the sequence (O75874 2-414 R132C limits assumed) above, with C131H counted along it

Measured: IC50

CC(F)(F)c1cccc(-c2nc(NC3CCC(F)(F)C3)nc(NC3CCC(F)(F)C3)n2)n1 (configuration not stated) [US10028961, Compound 105]
< 50 nM: all assays above

C[C@@H](Nc1nc(N[C@H](C)C2CC2)nc(-n2ccc(C(F)(F)F)n2)n1)C1CC1 [US10028961, Compound 121]
< 50 nM: all assays above

FC1(F)CC(Nc2nc(NC3CC(F)(F)C3)nc(-c3nc(C(F)(F)F)cs3)n2)C1 [US10028961, Compound 128]
< 50 nM: all assays above

FC1(F)CCC(Nc2nc(NC3CCC(F)(F)CC3)nc(-c3cncc(C(F)(F)F)n3)n2)CC1 [US10028961, Compound 160]
< 50 nM: all assays above
